Patent US8124627B2, “Biphenyl compounds useful as muscarinic receptor antagonists” (Theravance, Inc., priority 2005, dated 2012)
Where a name gives a salt, the structure may show the parent alone.

Key:
[1] = biological target: T1, M3 muscarinic receptor subtype (Homo sapiens, UniProt P20309); assay: Radioligand binding assay ([3H]-NMS displacement, CHO cell membranes); conditions: tested in this or a similar assay
T1 construct: expressed in transfected cells; crude membranes prepared in house
Experimental: CHO cell lines stably expressing cloned human hM1, hM2, hM3 and hM4 muscarinic receptor subtypes, respectively, were grown to near confluency in medium consisting of HAM's F-12 supplemented with 10% FBS and […]. The cells were grown in a 5% CO2, 37° C. incubator and lifted with 2 mM EDTA in dPBS. Cells were collected by 5 minute centrifugation at 650×g, and cell pellets were either stored frozen at −80° C. or membranes were prepared immediately. For membrane preparation, cell pellets were resuspended in lysis buffer and homogenized with a Polytron PT-2100 tissue disrupter (Kinematica AG; 20 seconds×2 bursts). Crude membranes were centrifuged at 40,000×g for 15 minutes at 4° C. […] The protein concentration of the membrane suspension was determined by the method described in Lowry, O. et al., […] 193:265 (1951). […]
Radioligand binding assays were performed in 96-well microtiter plates in a total assay volume of 100 μL. […] Filter plates were rinsed three times with wash buffer (10 mM HEPES) to remove unbound radioactivity. […] The plates were then counted in a PerkinElmer Topcount liquid scintillation counter (PerkinElmer Inc., Wellesley, Mass.). Binding data were analyzed by nonlinear regression analysis with the GraphPad Prism Software package (GraphPad Software, Inc., San Diego, Calif.) using the one-site competition model. […]

[2] = Differential scanning calorimetry (DSC), thermal decomposition; type: physicochemical; conditions: heating ramp 10° C./min
Experimental: DSC was performed using a TA Instruments Model Q-10 module with a Thermal Analyst controller, and data were collected and analyzed using TA Instruments Thermal Solutions software. A sample of about 1 mg of the crystalline diacetate salt was accurately weighed into an aluminum pan with lid, and evaluated using a linear heating ramp of 10° C./min from ambient temperature to approximately 300° C. The DSC cell was purged with dry nitrogen during use. A representative DSC trace for this salt is shown in FIG. 2 and depicts one transition at about 114° C., no thermal decomposition below about 160° C., and maximum endothermic heat flow at about 112° C.

[3] = Dynamic moisture sorption (DMS) assessment; type: physicochemical; conditions: exposed to up to 90% RH
Experimental: A dynamic moisture sorption (DMS) assessment (also known as a moisture sorption-desorption profile) was performed for samples of the crystalline diacetate salt using a VTI atmospheric microbalance, SGA-100 system (VTI Corp., Hialeah, Fla. 33016). A sample size of approximately 10 mg was used and the humidity was set at the ambient value at the start of the analysis. A typical DMS analysis consisted of three scans: ambient to 2% relative humidity (RH), 2% RH to 90% RH, 90% RH to 5% RH at a scan rate of 5% RH/step. The mass was measured every two minutes and the RH was changed to the next value (+/−5% RH) when the mass of the sample was stable to within 0.01% for 5 consecutive points.

T1 sequence (P20309 whole entry): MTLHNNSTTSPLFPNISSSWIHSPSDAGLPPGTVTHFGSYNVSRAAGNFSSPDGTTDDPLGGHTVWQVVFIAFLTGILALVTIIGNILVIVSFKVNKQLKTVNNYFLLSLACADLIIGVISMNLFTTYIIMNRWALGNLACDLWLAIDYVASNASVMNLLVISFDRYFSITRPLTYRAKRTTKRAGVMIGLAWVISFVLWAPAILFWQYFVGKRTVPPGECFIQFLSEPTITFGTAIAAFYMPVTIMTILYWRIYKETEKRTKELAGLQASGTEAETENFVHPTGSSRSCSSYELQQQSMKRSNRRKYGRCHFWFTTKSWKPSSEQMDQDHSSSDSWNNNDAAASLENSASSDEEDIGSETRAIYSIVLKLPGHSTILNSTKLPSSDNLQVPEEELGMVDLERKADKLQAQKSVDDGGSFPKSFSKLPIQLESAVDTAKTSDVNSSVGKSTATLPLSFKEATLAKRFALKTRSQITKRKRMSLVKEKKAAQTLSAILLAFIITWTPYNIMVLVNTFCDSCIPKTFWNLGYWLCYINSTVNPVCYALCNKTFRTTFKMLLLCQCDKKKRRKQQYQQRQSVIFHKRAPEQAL

| Compound | Ki [1] [nM] | no thermal decomposition below (DSC trace) [2] [°C] | weight gain in DMS (reversible sorption/desorption profile) [3] |
| --- | --- | --- | --- |
| CN(CCN1CCC(OC(=O)Nc2ccccc2-c2ccccc2)CC1)C(=O)c1cccc(C(=O)NCCNCc2ccc(O)cc2)c1 [Example 1, Biphenyl-2-ylcarbamic Acid 1-[2-({3-[2-(4-Hydroxybenzylamino)ethylcarbamoyl]benzoyl}methylamino)ethyl]piperidin-4-yl Ester] | < 5 | – | – |
| CN(CCN1CCC(OC(=O)Nc2ccccc2-c2ccccc2)CC1)C(=O)c1cccc(C(=O)NCCNCc2ccc(O)cc2)c1 [crystalline diacetate salt, biphenyl-2-ylcarbamic acid 1-[2-({3-[2-(4-hydroxybenzylamino)ethylcarbamoyl]benzoyl}methylamino)ethyl]piperidin-4-yl ester] | – | ≥ 160 | less than 18% |
| CN(CCN1CCC(OC(=O)Nc2ccccc2-c2ccccc2)CC1)C(=O)c1cccc(C(=O)NCCNCc2ccc(O)cc2)c1 [crystalline dipropionate salt, Biphenyl-2-ylcarbamic Acid 1-[2-({3-[2-(4-Hydroxybenzylamino)ethylcarbamoyl]benzoyl}methylamino)ethyl]piperidin-4-yl Ester] | – | ≥ 150 | less than 11% |
| CN(CCN1CCC(OC(=O)Nc2ccccc2-c2ccccc2)CC1)C(=O)c1cccc(C(=O)NCCNCc2ccc(O)cc2)c1 [crystalline monooxalate salt, Biphenyl-2-ylcarbamic Acid 1-[2-({3-[2-(4-Hydroxybenzylamino)ethylcarbamoyl]benzoyl}methylamino)ethyl]piperidin-4-yl Ester] | – | ≥ 150 | less than 14% |
